In US6248752A, “Azabicyclooctane compositions and methods for enhancing chemotherapy” (priority 1999, dated 2001):
Read-outs that look alike come from different tables or passages of the source.

Experiments:
MRP = biological target: T1, MRP (Homo sapiens, UniProt P33527); test: Reversal of MRP-mediated MDR: potentiation of vincristine cytotoxicity toward HL-60/ADR cells; format: cell-based
T1 construct: Human promyelocytic leukemia HL-60/ADR cells, which express MRP; endogenous in cells; host or cells: HL-60/ADR human promyelocytic leukemia cells

[1] = Intrinsic cytotoxicity of the compounds toward drug-sensitive MCF-7 cells (sulforhodamine B binding assay); conditions: human, Cytotoxicity (% killed at 10 μg/ml)
[2] = system: MCF-7 human breast carcinoma cells; conditions: mcf-7 cells, 48 h
in vitro = conditions: human, mcf-7 cells, Cytotoxicity (% killed at 10 μg/ml)
Pgp = Pgp (Homo sapiens, UniProt P08183)
[3] = chemosensitizing score on a scale of 0-5 (best activity=5; equal or superior to verapamil = 4, 4.5 or 5), HL-60/ADR cells, 2 nM vincristine, 48 h

T1 sequence (P33527 whole entry): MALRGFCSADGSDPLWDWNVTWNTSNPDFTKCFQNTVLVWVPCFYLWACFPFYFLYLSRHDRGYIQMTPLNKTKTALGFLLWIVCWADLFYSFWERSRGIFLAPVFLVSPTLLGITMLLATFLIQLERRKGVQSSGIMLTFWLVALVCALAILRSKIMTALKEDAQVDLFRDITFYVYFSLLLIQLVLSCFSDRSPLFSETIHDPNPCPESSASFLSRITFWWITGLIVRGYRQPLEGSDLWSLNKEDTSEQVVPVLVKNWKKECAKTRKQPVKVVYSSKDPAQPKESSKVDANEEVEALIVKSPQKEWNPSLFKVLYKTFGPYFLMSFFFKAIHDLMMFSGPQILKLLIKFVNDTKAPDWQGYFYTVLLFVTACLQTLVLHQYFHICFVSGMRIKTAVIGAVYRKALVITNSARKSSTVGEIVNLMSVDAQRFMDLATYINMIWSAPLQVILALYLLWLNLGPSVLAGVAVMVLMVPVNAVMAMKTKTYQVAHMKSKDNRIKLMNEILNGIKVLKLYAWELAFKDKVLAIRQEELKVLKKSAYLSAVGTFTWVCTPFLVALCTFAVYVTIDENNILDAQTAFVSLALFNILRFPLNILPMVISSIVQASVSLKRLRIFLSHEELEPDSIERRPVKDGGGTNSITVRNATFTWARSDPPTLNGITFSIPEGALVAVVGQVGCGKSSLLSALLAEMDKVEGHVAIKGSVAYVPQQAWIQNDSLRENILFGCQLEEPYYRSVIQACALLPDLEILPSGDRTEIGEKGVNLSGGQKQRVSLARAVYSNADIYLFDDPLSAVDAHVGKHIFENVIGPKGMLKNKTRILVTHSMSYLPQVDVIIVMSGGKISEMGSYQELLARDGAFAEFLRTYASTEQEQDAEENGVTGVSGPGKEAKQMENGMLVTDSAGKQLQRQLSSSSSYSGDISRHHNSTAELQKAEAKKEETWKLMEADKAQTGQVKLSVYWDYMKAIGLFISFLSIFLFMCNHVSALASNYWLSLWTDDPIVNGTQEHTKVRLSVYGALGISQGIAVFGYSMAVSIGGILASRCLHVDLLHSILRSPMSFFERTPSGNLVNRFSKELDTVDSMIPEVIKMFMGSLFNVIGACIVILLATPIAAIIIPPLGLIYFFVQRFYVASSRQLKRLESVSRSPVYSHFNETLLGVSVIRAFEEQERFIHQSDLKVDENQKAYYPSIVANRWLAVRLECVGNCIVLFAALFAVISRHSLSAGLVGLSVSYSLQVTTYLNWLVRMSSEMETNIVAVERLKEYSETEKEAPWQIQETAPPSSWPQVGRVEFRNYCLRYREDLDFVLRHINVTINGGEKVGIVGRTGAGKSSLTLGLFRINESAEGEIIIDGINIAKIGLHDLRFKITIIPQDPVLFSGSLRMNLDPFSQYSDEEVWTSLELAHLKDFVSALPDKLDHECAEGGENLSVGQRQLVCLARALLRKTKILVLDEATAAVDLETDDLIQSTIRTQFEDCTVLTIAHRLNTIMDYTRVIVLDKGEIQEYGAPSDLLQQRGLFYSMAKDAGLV
Pgp, sequence (P08183 whole entry): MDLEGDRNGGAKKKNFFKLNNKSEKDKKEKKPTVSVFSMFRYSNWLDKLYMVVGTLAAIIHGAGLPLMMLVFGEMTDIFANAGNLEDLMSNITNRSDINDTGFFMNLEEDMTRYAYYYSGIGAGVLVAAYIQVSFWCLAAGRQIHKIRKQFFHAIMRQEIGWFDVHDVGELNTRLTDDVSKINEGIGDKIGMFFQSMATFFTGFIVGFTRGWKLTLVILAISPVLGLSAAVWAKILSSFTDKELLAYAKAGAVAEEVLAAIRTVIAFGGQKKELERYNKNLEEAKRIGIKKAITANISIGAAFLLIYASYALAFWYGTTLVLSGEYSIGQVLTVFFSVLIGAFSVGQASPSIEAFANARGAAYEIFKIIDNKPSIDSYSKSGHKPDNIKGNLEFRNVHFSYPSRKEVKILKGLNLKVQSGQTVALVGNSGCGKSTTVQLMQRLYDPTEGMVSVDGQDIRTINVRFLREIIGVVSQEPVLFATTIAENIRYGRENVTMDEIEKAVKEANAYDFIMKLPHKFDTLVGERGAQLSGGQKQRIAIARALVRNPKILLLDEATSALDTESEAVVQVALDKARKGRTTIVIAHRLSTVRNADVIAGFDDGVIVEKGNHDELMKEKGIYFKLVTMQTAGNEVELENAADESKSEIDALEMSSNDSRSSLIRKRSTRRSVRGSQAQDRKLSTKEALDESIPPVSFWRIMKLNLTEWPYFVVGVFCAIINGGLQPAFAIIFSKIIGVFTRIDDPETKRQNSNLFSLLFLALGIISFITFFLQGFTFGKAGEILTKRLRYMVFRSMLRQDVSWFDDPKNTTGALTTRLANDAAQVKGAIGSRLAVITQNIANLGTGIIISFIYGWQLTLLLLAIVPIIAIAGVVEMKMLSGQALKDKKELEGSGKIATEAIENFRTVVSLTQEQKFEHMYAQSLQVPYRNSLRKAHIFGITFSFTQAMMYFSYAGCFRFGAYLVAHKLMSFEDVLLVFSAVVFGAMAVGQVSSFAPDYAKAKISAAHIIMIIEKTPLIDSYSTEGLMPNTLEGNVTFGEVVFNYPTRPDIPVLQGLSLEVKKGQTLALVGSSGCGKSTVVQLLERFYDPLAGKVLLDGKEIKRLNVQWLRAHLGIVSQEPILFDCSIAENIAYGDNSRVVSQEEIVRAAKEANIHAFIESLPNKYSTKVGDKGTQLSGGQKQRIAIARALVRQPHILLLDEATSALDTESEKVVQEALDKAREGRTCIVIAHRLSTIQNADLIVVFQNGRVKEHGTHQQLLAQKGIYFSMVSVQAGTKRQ

| Compound | MRP antagonism (MRP; [3]) | cytotoxicity at 48 h [1] | also measured |
| --- | --- | --- | --- |
| COc1cc(C2(O)CC3CCC2N(Cc2ccccc2)C3)cc(OC)c1OC (stereo not drawn) [Compound I-2, 2-benzyl-cis-6-hydroxy-trans-6-(3,4,5-trimethoxyphenyl)-2-azabicyclco[2.2.2]octane] | 3 | 39% |  |
| COc1cc(C2CC3CCC2N(Cc2ccccc2)C3)cc(OC)c1OC (stereo not shown) [Compound I-3, 2-benzyl-6-(3,4,5-trimethoxyphenyl)-2-azabicyclo[2.2.2]octane] | 4 | 22% |  |
| COc1cc(C2CC3CCC2NC3)cc(OC)c1OC (stereo not drawn) [Compound I-4, cis-6-(3,4,5-trimethoxyphenyl)-2-azabicyclo[2.2.2]octane] | 2 |  | Cytotoxicity (% killed at 10 μg/ml) [2]: 12% |
| COc1cc(C2CC3CCC2NC3)cc(OC)c1OC (stereo not drawn) [Compound I-5, trans-6-(3,4,5-trimethoxyphenyl)-2-azabicyclo[2.2.2]octane] | 4 |  | Cytotoxicity (% killed at 10 μg/ml) [2]: 0% |
| Oc1ccc(C2(O)CC3CCC2N(Cc2ccccc2)C3)cc1O (stereo not drawn) [Compound I-6, 2-benzyl-cis-6-hydroxy-trans-6-(3,4-dihydroxyphenyl)-2-azabicyclo[2.2. 2]octane] | 1.5 | 21% |  |
| CCN1CC2CCC1C(Nc1ccccc1)C2 (stereo not shown) [Compound I-7, 2-ethyl-6-anilino-2-azabicyclo[2.2.2]octane] | 1 |  | cytotoxicity at 48 h (in vitro): 26% |
| OC1CC2CCC1N(Cc1ccccc1)C2 (stereo not drawn) [Compound I-9, 2-benzyl-6-trans-hydroxy-2-azabicyclo[2.2.2]octane] | 0 |  | cytotoxicity at 48 h (in vitro): 0% |
| OC1(c2ccc(OCc3ccccc3)c(OCc3ccccc3)c2)CC2CCC1N(Cc1ccccc1)C2 (stereo not shown) [Compound I-10, 2-benzyl-6-(3,4-dibenzyloxyphenyl)-6-hydroxy-2-azabicyclo[2.2.2]octane] | 0 | 0% |  |
| CN1CC2CCC1C(=O)C2=C(c1ccccc1)c1ccccc1 (stereo not shown) [Compound I-11, 5-diphenylmethylidene-2-methyl-2-azabicyclo[2.2.2]octan-6-one] |  | 8% |  |
| NNC(=O)OC1CC2CCC(C1)N2C(=O)Oc1ccc(Cl)cc1 (stereo not shown) [II-1, 3-hydrazinocarbonyloxy-8-(4-chlorophenoxycarbonyl)-8-azabicyclo[3.2. 1]octane] |  |  | MRP antagonism (MRP): 2; Pgp antagonism (Pgp): 3 |
